Patent US4520024A, “Method of selectively blocking peripheral vascular serotonergic receptors” (Eli Lilly and Company, priority 1983, dated 1985)

Tests used:
[1] = system: conscious spontaneously hypertensive rats (SHR); assay: In vivo studies, conscious SHR, mean arterial blood pressure; parameters: species or system rat; settings: intraperitoneal, 10 mg./kg. dose level
Source text: Twenty-four week old SHR (325-425 g.) rats were anesthetized with halothane. They were then implanted with femoral arterial and venous catheters. The tips of the arterial and venous catheters were positioned in the abdominal aorta below the renal arteries and lower abdominal vena cava, respectively. The catheters were routed subcutaneously to an exit point at the base of the skull and then through a small leather harness fastened around the forequarters of each animal. The animals were allowed a 3-4 day recovery period after surgery. On the day before a given experiment, the rats to be used in that experiment were conditioned to the experimental surroundings for about 6 hours. In carrying out the determination, the harness on the back of each animal was connected to a spring-tether through which arterial and venous extension tubing were routed. The opposite end of the tubing was connected to a water tight swivel. This system permitted direct recording of blood pressure in conscious, free-moving animals. Mean arterial blood pressure was measured via a Statham strain gauge transducer and recorded on a multichannel oscillograph. The rats were equilibrated for at least 30 minutes prior to the initiation of the experimental protocol. During this equilibration period, the animals preened themselves and the blood pressure was quite labile. After this period, the animals appeared to sleep and pressure was stable. Following a control blood pressure measurement, the rats were dosed with ketanserin, benzoctamine, 1-(1-naphthyl)piperazine or the experimental vehicle via the intraperitoneal route. Blood pressure was monitored at various time intervals after dosing.

[2] = system: alpha-adrenergic receptors; assay: Apparent dissociation constant, antagonism of norepinephrine-induced contraction in rat aorta; assay type: cell-based
Source text: (§1) Male Wistar rats (150-300 gram weight) were killed and their external jugular veins and thoracic aortas dissected free of connective tissue, cannulated in situ and placed in a modified Krebs' bicarbonate buffer in a suitable tissue bath. Two L-shaped 30-gauge stainless-steel hypodermic needles were inserted in each cannula and the dissected vessels gently pushed onto the needles. One needle was attached with thread to a stationary glass rod and the other to the transducer. [The procedure employed was that described by Hooker, Calkins and Fleisch, Blood Vessels, 14, 1, (1977) for use with circular smooth muscle preparations.]
(§2) The modified Krebs' bicarbonate buffer had the following makeup: (concentrations in millimoles): sodium chloride, 118.2; potassium chloride, 4.6; calcium chloride dihydrate, 1.6; potassium dihydrogenphosphate, 1.2; magnesium sulfate, 1.2; dextrose, 10.0; sodium bicarbonate, 24.8; and water q.s. to 1000 g. […] Isometric contractions were recorded as changes in grams of force on a Beckman Dynograph with Statham UC-3 transducers and microscale accessory attachment. […] Contraction to serotonin was evaluated in the jugular vein since this tissue produces marked responses to serotonin in the absence of alpha receptors--see Cohen and Wiley, J. Pharm. […] Alpha receptor antagonist activity was evaluated in the aorta. […]

[3] = molecular target: T1, 5HT2 receptors (Rattus norvegicus, UniProt P14842); assay: Apparent dissociation constant, antagonism of serotonin-induced contraction in rat jugular vein; assay type: cell-based; parameters: from tissue; host or cells: whole animal: pithed SHR, vascular tissue in vivo; settings: serotonin as agonist, antagonist incubated one hour, read-out: -log KB for 5HT2 receptors (converted)
Source text: as §1, §2

[4] = system: alpha1 receptor; assay: In vivo studies, pithed SHR, pressor response to methoxamine; parameters: species or system rat; settings: i.p., rank order among three drugs
Procedure: SHR were anesthesized with halothane, femoral arterial and venous catheters implanted as before and the trachea cannulated. Each rat was pithed by passing a steel rod through the right orbit and down the entire length of the spinal column. The steel rod remained in place for the duration of the experiment. Immediately after pithing, the rats were ventilated with room air via a rodent respirator which eliminated any anesthetic effects. […] The response was recorded and the blood pressure allowed to recover to control levels. […] The test drugs were prepared fresh daily and administered by the intraperitoneal route. Benzoctamine and 1-(1-naphthyl)piperazine were administered at a 10 mg./kg. dosage and ketanserin at a 1 mg./kg. dosage.

[5] = molecular target: T1, 5HT2 receptors; assay: In vivo studies, pithed SHR, pressor response to serotonin; parameters: from tissue; host or cells: whole animal: pithed SHR, vascular tissue in vivo; settings: i.p., rank order among three drugs
Procedure: SHR were anesthesized with halothane, femoral arterial and venous catheters implanted as before and the trachea cannulated. Each rat was pithed by passing a steel rod through the right orbit and down the entire length of the spinal column. The steel rod remained in place for the duration of the experiment. Immediately after pithing, the rats were ventilated with room air via a rodent respirator which eliminated any anesthetic effects. An equilibration period of 15 minutes was observed prior to control measurements and administration of drugs or vehicle i.p. Increasing doses of serotonin or methoxamine were injected i.v. 15 minutes after the equilibration period. The response was recorded and the blood pressure allowed to recover to control levels. […] The test drugs were prepared fresh daily and administered by the intraperitoneal route. Benzoctamine and 1-(1-naphthyl)piperazine were administered at a 10 mg./kg. dosage and ketanserin at a 1 mg./kg. dosage.

T1 sequence (P14842 whole entry): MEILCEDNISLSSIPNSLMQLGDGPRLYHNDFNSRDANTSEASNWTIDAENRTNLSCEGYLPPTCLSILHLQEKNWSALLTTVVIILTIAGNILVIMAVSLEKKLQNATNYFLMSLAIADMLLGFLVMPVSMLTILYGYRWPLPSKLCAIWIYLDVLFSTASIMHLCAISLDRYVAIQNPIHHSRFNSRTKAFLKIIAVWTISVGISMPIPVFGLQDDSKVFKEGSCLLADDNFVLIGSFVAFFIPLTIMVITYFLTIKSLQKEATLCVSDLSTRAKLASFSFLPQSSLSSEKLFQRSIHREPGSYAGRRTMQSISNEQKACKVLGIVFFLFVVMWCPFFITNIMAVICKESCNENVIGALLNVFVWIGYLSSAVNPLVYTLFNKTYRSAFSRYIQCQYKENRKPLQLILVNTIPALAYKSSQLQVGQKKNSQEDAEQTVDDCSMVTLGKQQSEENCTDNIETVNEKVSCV

Compound	blood pressure lowering [1]	-log KB for alpha-adrenergic receptors ([2]; rat thoracic aorta, norepinephrine as agonist, antagonist incubated one hour, 60 min)	lower affinity for alpha-adrenergic receptors than for 5HT2 receptors ([2]; ratio of affinities, 5HT2 versus alpha-adrenergic)	Kb [3] [nM]	inhibition in the pressor response to methoxamine ([4]; 10 mg./kg.)	inhibition of the pressor response to serotonin ([5]; 10 mg./kg.)	inhibition of the pressor response to serotonin ([5]; 1 mg./kg.)	inhibition in the pressor response to methoxamine ([4]; 1 mg./kg.)
c1ccc2c(N3CCNCC3)cccc2c1 [1-(1-naphthyl)piperazine]	ineffective as a blood pressure lowering agent	5.38	approximately 2000 fold	1.78	the least	–	–	–
CNCC12CCC(c3ccccc31)c1ccccc12 [benzoctamine]	lowered blood pressure as did ketanserin but to a lesser degree	–	–	–	second	then benzoctamine	–	–
O=C(c1ccc(F)cc1)C1CCN(CCn2c(=O)[nH]c3ccccc3c2=O)CC1 [ketanserin]	produced the greatest fall in blood pressure	–	–	–	–	–	greatest	greatest effect
